Measurements: paper PMC9736874, “Development of Hydroxamate Derivatives Containing a Pyrazoline Moiety as APN Inhibitors to Overcome Angiogenesis” (Molecules, 2022)

Columns and labels:
[1] = biological target: T1, porcine kidney aminopeptidase N (APN) (Sus scrofa, UniProt P15145); test: Enzymatic inhibition assay against APN in vitro (L-Leu-p-nitroanilide substrate); type: biochemical; conditions: soluble APN from porcine kidney microsomal, 37 °C, 30 min; triplicate, mean ± SD
T1 construct: purchased Enzo Life Sciences; host or cells: porcine kidney microsomes (tissue-derived)
T1 sequence (P15145 1-963): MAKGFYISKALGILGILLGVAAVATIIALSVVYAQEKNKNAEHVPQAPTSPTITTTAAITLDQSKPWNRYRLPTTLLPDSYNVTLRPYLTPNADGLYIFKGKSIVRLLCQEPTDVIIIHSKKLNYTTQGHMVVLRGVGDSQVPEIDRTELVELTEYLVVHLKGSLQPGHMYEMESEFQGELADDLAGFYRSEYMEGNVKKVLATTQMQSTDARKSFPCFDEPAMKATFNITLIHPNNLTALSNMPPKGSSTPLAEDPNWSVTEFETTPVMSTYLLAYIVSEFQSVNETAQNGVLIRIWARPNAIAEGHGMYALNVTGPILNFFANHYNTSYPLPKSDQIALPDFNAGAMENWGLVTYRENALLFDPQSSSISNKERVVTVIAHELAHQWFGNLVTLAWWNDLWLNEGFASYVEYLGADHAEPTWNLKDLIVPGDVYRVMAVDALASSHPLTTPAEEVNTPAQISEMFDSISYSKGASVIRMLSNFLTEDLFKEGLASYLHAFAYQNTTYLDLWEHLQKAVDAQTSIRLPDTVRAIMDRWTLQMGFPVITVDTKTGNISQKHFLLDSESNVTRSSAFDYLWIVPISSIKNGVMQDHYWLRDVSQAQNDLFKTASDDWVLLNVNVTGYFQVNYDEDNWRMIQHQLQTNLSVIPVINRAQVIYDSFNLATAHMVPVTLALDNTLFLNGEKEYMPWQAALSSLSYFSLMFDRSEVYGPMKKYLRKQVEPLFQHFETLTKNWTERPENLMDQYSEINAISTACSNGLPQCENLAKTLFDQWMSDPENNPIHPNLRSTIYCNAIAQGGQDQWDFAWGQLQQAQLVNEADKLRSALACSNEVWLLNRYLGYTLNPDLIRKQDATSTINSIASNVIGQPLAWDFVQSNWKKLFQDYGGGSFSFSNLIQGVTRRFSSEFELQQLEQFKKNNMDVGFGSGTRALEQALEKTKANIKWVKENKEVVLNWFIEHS
Protocol: The enzymatic inhibitory activities of target compounds were evaluated using L-Leu-p-nitroanilide (Sigma-Aldrich, St. Louis, MO, USA) as substrate and soluble APN from porcine kidney microsomal (Enzo Life Sciences, Farmingdale, NY, USA) as enzyme. Firstly, the substrate was dissolved in DMSO to a concentration of 16 mmol/L and the enzyme was dissolved in buffer solution of 50 mM PBS (pH = 7.2) for a concentration of 0.15 IU/L. Subsequently, inhibitors (40 μL) and PBS (145 μL) were added into the 96-well plates, followed by the addition of substrate (5 μL) and enzyme (10 μL). After incubation at 37 °C for 30 min, the absorbance values were measured at 405 nm with a plate reader (Varioskan, Thermo Fisher Scientific, Waltham, MA, USA).

Compound	IC50 [1] [nM]	melting point [°C]
CC(=O)N1N=C(c2ccccc2I)CC1c1c(Cl)cccc1OCC(=O)NO (centres unmarked) [Compound 14y, 2-(2-(1-Acetyl-3-(2-iodophenyl)-4,5-dihydro-1H-pyrazol-5-yl)-3-chlorophenoxy)-N-hydroxyacetamide]	23 ± 1	168 to 170
CC(=O)N1N=C(c2ccccc2I)CC1c1ccc(Br)cc1OCC(=O)NO (centres unmarked) [Compound 14s, 2-(2-(1-Acetyl-3-(2-iodophenyl)-4,5-dihydro-1H-pyrazol-5-yl)-5-bromophenoxy)-N-hydroxyacetamide]	2100 ± 200	168 to 170
CC(=O)N1N=C(c2ccc(Cl)cc2Cl)CC1c1ccccc1OCC(=O)NO (centres unmarked) [Compound 14l, 2-(2-(1-Acetyl-3-(2,4-dichlorophenyl)-4,5-dihydro-1H-pyrazol-5-yl)phenoxy)-N-hydroxyacetamide]	580 ± 40	128 to 130
CC(=O)N1N=C(c2ccccc2I)CC1c1c(Br)cccc1OCC(=O)NO (centres unmarked) [Compound 14w, 2-(2-(1-Acetyl-3-(2-iodophenyl)-4,5-dihydro-1H-pyrazol-5-yl)-3-bromophenoxy)-N-hydroxyacetamide]	24 ± 1	152 to 154
NC(=O)N1N=C(c2ccccc2I)CC1c1c(Br)cccc1OCC(=O)NO (centres unmarked) [Compound 14x, 5-(2-Bromo-6-(2-(hydroxyamino)-2-oxoethoxy)phenyl)-3-(2-iodophenyl)-4,5-dihydro-1H-pyrazole-1-carboxamide]	90 ± 5	132 to 134
CC(=O)N1N=C(c2ccccc2OCc2ccccc2)CC1c1ccccc1OCC(=O)NO (centres unmarked) [Compound 14aa, 2-(2-(1-Acetyl-3-(2-(benzyloxy)phenyl)-4,5-dihydro-1H-pyrazol-5-yl)phenoxy)-N-hydroxyacetamide]	17 ± 1	162 to 164
CC(=O)N1N=C(c2ccccc2I)CC1c1ccccc1OCC(=O)NO (centres unmarked) [Compound 14i, 2-(2-(1-Acetyl-3-(2-iodophenyl)-4,5-dihydro-1H-pyrazol-5-yl)phenoxy)-N-hydroxy acetamide]	15 ± 1	174 to 176
NC(=O)N1N=C(c2ccccc2OCc2ccc(Br)cc2)CC1c1ccccc1OCC(=O)NO (centres unmarked) [Compound 14hh, 3-(2-((4-Bromobenzyl)oxy)phenyl)-5-(2-(2-(hydroxyamino)-2-oxoethoxy)phenyl)-4,5-dihydro-1H-pyrazole-1-carboxamide]	550 ± 40	96 to 98
CC(=O)N1N=C(c2ccccc2OCc2cccc(Br)c2)CC1c1ccccc1OCC(=O)NO (centres unmarked) [Compound 14ee, 2-(2-(1-Acetyl-3-(2-((3-bromobenzyl)oxy)phenyl)-4,5-dihydro-1H-pyrazol-5-yl)phenoxy)-N-hydroxyacetamide]	31 ± 2	164 to 166
NC(=O)N1N=C(c2ccccc2OCc2cccc(Br)c2)CC1c1ccccc1OCC(=O)NO (centres unmarked) [Compound 14ff, 3-(2-((3-Bromobenzyl)oxy)phenyl)-5-(2-(2-(hydroxyamino)-2-oxoethoxy)phenyl)-4,5-dihydro-1H-pyrazole-1-carboxamide]	58 ± 3	120 to 122
CC(=O)N1N=C(c2ccccc2Br)CC1c1ccccc1OCC(=O)NO (centres unmarked) [Compound 14a, 2-(2-(1-Acetyl-3-(2-bromophenyl)-4,5-dihydro-1H-pyrazol-5-yl)phenoxy)-N-hydroxy acetamide]	46 ± 3	162 to 164
NC(=O)N1N=C(c2ccccc2OCc2ccccc2Br)CC1c1ccccc1OCC(=O)NO (centres unmarked) [Compound 14dd, 3-(2-((2-Bromobenzyl)oxy)phenyl)-5-(2-(2-(hydroxyamino)-2-oxoethoxy)phenyl)-4,5-dihydro-1H-pyrazole-1-carboxamide]	230 ± 10	92 to 94
NC(=O)N1N=C(c2ccccc2I)CC1c1cc(Br)ccc1OCC(=O)NO (centres unmarked) [Compound 14v, 5-(5-Bromo-2-(2-(hydroxyamino)-2-oxoethoxy)phenyl)-3-(2-iodophenyl)-4,5-dihydro-1H-pyrazole-1-carboxamide]	540 ± 40	202 to 204
CC(=O)N1N=C(c2cccc3ccccc23)CC1c1ccccc1OCC(=O)NO (centres unmarked) [Compound 14p, 2-(2-(1-Acetyl-3-(naphthalen-1-yl)-4,5-dihydro-1H-pyrazol-5-yl)phenoxy)-N-hydroxy acetamide]	310 ± 20	198 to 200
NC(=O)N1N=C(c2ccccc2I)CC1c1ccc(Br)cc1OCC(=O)NO (centres unmarked) [Compound 14t, 5-(4-Bromo-2-(2-(hydroxyamino)-2-oxoethoxy)phenyl)-3-(2-iodophenyl)-4,5-dihydro-1H-pyrazole-1-carboxamide]	1600 ± 100	196 to 198
NC(=O)N1N=C(c2ccccc2)CC1c1ccccc1OCC(=O)NO (centres unmarked) [Compound 13b, reference compound]	160 ± 10	

The remaining compounds from weak to strong by IC50 [1], led by results:

IC50 [1] [nM]	melting point [°C]	Compound
4400 ± 300	202 to 204	CC(=O)N1N=C(c2ccc(Br)cc2)CC1c1ccccc1OCC(=O)NO (centres unmarked) [Compound 14c, 2-(2-(1-Acetyl-3-(4-bromophenyl)-4,5-dihydro-1H-pyrazol-5-yl)phenoxy)-N-hydroxy acetamide]
3400 ± 300	140 to 142	NC(=O)N1N=C(c2ccccc2I)CC1c1cccc(Br)c1OCC(=O)NO (centres unmarked) [Compound 14r, 5-(3-Bromo-2-(2-(hydroxyamino)-2-oxoethoxy)phenyl)-3-(2-iodophenyl)-4,5-dihydro-1H-pyrazole-1-carboxamide]
370 ± 20	106 to 108	CC(=O)N1N=C(c2ccccc2I)CC1c1cc(Br)ccc1OCC(=O)NO (centres unmarked) [Compound 14u, 2-(2-(1-Acetyl-3-(2-iodophenyl)-4,5-dihydro-1H-pyrazol-5-yl)-4-bromophenoxy)-N-hydroxyacetamide]
320 ± 10	170 to 172	COc1ccccc1C1=NN(C(C)=O)C(c2ccccc2OCC(=O)NO)C1 (centres unmarked) [Compound 14d, 2-(2-(1-Acetyl-3-(2-methoxyphenyl)-4,5-dihydro-1H-pyrazol-5-yl)phenoxy)-N-hydroxy acetamide]
320 ± 10		CC(=O)N1N=C(c2ccccc2)CC1c1ccccc1OCC(=O)NO (centres unmarked) [Compound 13a, reference compound]
70 ± 3	190 to 192	NC(=O)N1N=C(c2ccccc2I)CC1c1c(Cl)cccc1OCC(=O)NO (centres unmarked) [Compound 14z, 5-(2-Chloro-6-(2-(hydroxyamino)-2-oxoethoxy)phenyl)-3-(2-iodophenyl)-4,5-dihydro-1H-pyrazole-1-carboxamide]
68 ± 4	82 to 84	CC(=O)N1N=C(c2ccccc2OCc2ccccc2Br)CC1c1ccccc1OCC(=O)NO (centres unmarked) [Compound 14cc, 2-(2-(1-Acetyl-3-(2-((2-bromobenzyl)oxy)phenyl)-4,5-dihydro-1H-pyrazol-5-yl)phenoxy)-N-hydroxyacetamide]
59 ± 2		NC(=O)N1N=C(c2c(Cl)cccc2Cl)CC1c1ccccc1OCC(=O)NO (centres unmarked) [Compound 13c, reference compound]
44 ± 3	164 to 166	NC(=O)N1N=C(c2ccccc2I)CC1c1ccccc1OCC(=O)NO (centres unmarked) [Compound 14j, 5-(2-(2-(Hydroxyamino)-2-oxoethoxy)phenyl)-3-(2-iodophenyl)-4,5-dihydro-1H-pyrazole-1-carboxamide]
